The target of one assay is T1, ERβ LBD (Homo sapiens, UniProt Q92731).
T1 construct: host or cells: HEK293
Briefly: Ability to bind to ERβ: pBIND-ERβ LBD / GAL4 luciferase reporter in HEK293 cells. Set-up: key: RLU = firefly luminescence / Renilla luminescence. Type of assay: cell-based. Particulars: negative control 0.0118997. As to the method: This evaluation system is a system exploiting difference in the sequence of the ligand binding domain (LBD) between ERα and ERβ (J Endocrinol 163: 379-383 (1999)), and enables selective activation of ERβ to be evaluated by determining the binding of a ligand to LBD and the activation of ER.
A human kidney-derived cell line HEK293 was cultured (37° C., 5% CO2) in Dulbecco's modified Eagle medium (hereinafter, abbreviated to DMEM) containing 10% (v/v) fetal bovine serum (FBS) and penicillin/streptomycin.
2) Measurement of Binding Activity Against ERs
This measurement was carried out according to the method described in JP-B-5990058. Specifically, HEK293 cells were inoculated at a cell density of 4.0×10^4 cells/well to a 96-well plate. After 12 hours therefrom, the medium was replaced with a culture solution (DMEM containing 5% (v/v) charcoal-treated serum). The cells were cotransfected with pBIND-ERα for the expression of ERα LBD or pBIND-ERβ for the expression of ERβ LBD (Promega Corp.) and pGL4.35[luc2P/9XGAL4UAS/Hygro](Promega Corp.) using Lipofectamine 2000 (Invitrogen Corp.) according to the protocol attached to the product. 24 hours after transfection, the medium was replaced with a culture solution containing a test sample, followed by culture for another 24 hours. The activity measurement of firefly luciferase (index for the ligand binding activity of ER) and Renilla reniformis luciferase (index for the transfection efficiency of the plasmids) was carried out using Dual-Glo™ Luciferase Assay System (Promega Corp.) according to the attached protocol. The luminescence intensity of the firefly luciferase was divided by the luminescence intensity of the Renilla reniformis luciferase to calculate a relative light unit (RLU).

The next assay has as its target T2, ERα (Homo sapiens, UniProt P03372).
T2 construct: host or cells: HEK293
T2 sequence (P03372 1-595): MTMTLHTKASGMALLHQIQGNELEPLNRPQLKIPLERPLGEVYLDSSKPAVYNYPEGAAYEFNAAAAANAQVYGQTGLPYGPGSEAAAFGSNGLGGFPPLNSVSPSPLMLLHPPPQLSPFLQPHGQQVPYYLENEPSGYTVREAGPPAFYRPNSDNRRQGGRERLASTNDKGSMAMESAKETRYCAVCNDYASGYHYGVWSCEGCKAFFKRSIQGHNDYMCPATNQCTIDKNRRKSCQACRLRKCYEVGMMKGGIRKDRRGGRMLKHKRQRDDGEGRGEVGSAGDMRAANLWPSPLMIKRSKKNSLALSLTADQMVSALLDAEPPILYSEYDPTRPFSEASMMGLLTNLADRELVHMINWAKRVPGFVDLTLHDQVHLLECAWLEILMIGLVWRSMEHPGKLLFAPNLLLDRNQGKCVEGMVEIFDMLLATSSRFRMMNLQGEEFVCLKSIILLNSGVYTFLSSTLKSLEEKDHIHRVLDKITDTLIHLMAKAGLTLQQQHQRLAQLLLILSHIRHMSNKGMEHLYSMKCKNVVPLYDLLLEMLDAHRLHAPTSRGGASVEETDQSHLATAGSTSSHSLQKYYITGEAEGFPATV
Briefly: Ability to activate transcription mediated by ERα (pcDNA3-ERα, pERE luciferase, HEK293 cells). The following applies: negative control 0.004573. Type of assay: cell-based. As to the method:
1) Experimental Method (Measurement of Transcriptional Activity Mediated by ERs)
HEK293 cells were inoculated at a cell density of 4.0×10^4 cells/well to a 96-well plate. After 12 hours therefrom, the medium was replaced with a culture solution (DMEM containing 5% (v/v) charcoal-treated serum). The cells were cotransfected with pcDNA3-ERα or pcDNA3-ERβ (Promega Corp.) and pERE and pRL-CMV (Promega Corp.) using Lipofectamine 2000 (Invitrogen Corp.) according to the protocol attached to the product. 24 hours after transfection, the medium was replaced with a culture medium containing a test sample, followed by culture for another 24 hours. Then, luciferase activity was measured using Dual-Glo™ Luciferase Assay System (Promega Corp.) according to the attached protocol. The luminescence intensity of firefly luciferase (index for the ability to activate transcription mediated by ERE) was divided by the luminescence intensity of Renilla reniformis luciferase (index for the transfection efficiency of the plasmids) to calculate a relative light unit (RLU).

T1 sequence (Q92731 264-498 limits assumed): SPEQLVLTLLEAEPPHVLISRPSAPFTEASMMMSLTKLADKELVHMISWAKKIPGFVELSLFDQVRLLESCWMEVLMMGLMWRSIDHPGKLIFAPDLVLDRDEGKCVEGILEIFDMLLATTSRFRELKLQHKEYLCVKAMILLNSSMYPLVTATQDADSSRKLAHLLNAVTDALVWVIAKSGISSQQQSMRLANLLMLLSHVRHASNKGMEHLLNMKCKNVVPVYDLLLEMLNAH

Turning to `Oc1ccc(CC(C=C(F)F)c2ccc(O)cc2F)c(F)c1` (centres unmarked) [Compound 17-F, 4,4′-(4,4-difluorobut-3-ene-1,2-diyl)bis(3-fluorophenol)], the “relative light unit (RLU), ligand binding activity ERβ” value on ERβ LBD (0.01 nM) worked out at 0.4273; at ERβ LBD (0.1 nM), 1.771; at ERβ LBD (1 nM), 2.021; at ERβ LBD (10 nM) it was 2.367; at ERβ LBD (100 nM), 2.186. Also, the “relative light unit (RLU), transcription activation ERα” value worked out at 0.008213 on ERα (0.1 pM); 0.01023 on ERα (1 pM); 0.01835 at ERα (10 pM); 0.04125 at ERα (100 pM); 0.06202 at ERα (1000 pM); 0.05401 on ERα (10000 pM).

Values taken from patent US11453632B2, “1-phenyl-2-phenylethane derivative” (KAO CORPORATION, priority 2018, dated 2022).
